The source of these data is ChEMBL document CHEMBL5465560, “Selectivity Literature for EUbOPEN Chemogenomic Library” (2024).

For test [1], the target named is T1, Testis-specific serine/threonine-protein kinase 2 (Homo sapiens) (UniProt Q96PF2).
T1 sequence (whole entry): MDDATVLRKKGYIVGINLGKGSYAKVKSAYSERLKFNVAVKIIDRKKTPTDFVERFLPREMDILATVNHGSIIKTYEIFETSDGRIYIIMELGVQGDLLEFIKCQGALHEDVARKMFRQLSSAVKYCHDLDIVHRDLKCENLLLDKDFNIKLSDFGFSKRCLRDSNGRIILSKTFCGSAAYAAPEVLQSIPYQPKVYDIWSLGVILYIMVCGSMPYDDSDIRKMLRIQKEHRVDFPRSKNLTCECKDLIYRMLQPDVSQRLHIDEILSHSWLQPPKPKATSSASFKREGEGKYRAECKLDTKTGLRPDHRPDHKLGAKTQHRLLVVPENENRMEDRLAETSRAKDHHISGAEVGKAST
Kind of test: Selectivity interaction (SelectScreen profiling (Invitrogen)) EUB0000607a TSSK2. The following applies: at 2 µM.

Test [2] deals with MAP kinase-interacting serine/threonine-protein kinase 2 (Homo sapiens, UniProt Q9HBH9). Kind of test: Selectivity interaction (KinomeScan (DiscoverX)) EUB0000229b MKNK2. The settings on record: at 10 µM.
For test [3], the target named is Cyclin-dependent kinase 16 (Homo sapiens) (UniProt Q00536). Kind of test: Selectivity interaction (KinomeScan (DiscoverX)) EUB0000655a CDK16. The following applies: at 10 µM.
In test [4] the target is Tyrosine-protein kinase JAK1 (Homo sapiens, UniProt P23458). Kind of test: Selectivity interaction (KinomeScan (DiscoverX)) EUB0001619a JAK1. The following applies: at 1 µM.
Test [5] concerns the target Tyrosine-protein kinase CSK (Homo sapiens) (UniProt P41240). Kind of test: Selectivity interaction (ActivX KiNativ screen (kinase selectivity in THP-1 cell lysates)) EUB0000639a CSK. The settings on record: lysate, at 5 µM. In kind it is subcellular.
Test [6] deals with T2, Dual specificity mitogen-activated protein kinase kinase 4 (Homo sapiens) (UniProt P45985).
T2 sequence (whole entry): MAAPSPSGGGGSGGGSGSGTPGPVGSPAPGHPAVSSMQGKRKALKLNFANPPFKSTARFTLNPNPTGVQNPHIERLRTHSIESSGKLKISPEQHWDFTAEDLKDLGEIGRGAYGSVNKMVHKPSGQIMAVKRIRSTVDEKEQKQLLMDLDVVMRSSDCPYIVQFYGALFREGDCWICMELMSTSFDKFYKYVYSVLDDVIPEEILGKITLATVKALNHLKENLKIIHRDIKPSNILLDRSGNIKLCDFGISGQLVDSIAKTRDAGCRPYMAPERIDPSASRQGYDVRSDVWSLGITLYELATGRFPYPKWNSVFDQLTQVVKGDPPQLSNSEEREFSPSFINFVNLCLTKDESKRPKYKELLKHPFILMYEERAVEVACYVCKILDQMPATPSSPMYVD
Kind of test: Selectivity interaction (ActivX KiNativ screen (kinase selectivity in THP-1 cell lysates)) EUB0000639a MAP2K4. The following applies: lysate, at 5 µM. Type of test: subcellular.

In test [7] the target is Serine/threonine-protein kinase B-raf (Homo sapiens) (UniProt P15056). Kind of test: Selectivity interaction (Kinase panel (Invitrogen)) EUB0000639a BRAF. The following applies: at 200 nM.
Test [8] concerns the target Serine/threonine-protein kinase 25 (Homo sapiens) (UniProt O00506). Kind of test: Selectivity interaction (KinomeScan (DiscoverX)) EUB0000699a STK25. The following applies: at 10 µM.
For test [9], the target named is Interleukin-1 receptor-associated kinase 1 (Homo sapiens) (UniProt P51617). Kind of test: Selectivity interaction (KinomeScan (DiscoverX)) EUB0001049a IRAK1. The following applies: at 1 µM.
For test [10], the target named is Insulin receptor-related protein (Homo sapiens) (UniProt P14616). Kind of test: Selectivity interaction (KinomeScan (DiscoverX)) EUB0001049a INSRR. The settings on record: at 1 µM.
The target in test [11] is T3, Serine/threonine-protein kinase NLK (Homo sapiens) (UniProt Q9UBE8).
T3 sequence (whole entry): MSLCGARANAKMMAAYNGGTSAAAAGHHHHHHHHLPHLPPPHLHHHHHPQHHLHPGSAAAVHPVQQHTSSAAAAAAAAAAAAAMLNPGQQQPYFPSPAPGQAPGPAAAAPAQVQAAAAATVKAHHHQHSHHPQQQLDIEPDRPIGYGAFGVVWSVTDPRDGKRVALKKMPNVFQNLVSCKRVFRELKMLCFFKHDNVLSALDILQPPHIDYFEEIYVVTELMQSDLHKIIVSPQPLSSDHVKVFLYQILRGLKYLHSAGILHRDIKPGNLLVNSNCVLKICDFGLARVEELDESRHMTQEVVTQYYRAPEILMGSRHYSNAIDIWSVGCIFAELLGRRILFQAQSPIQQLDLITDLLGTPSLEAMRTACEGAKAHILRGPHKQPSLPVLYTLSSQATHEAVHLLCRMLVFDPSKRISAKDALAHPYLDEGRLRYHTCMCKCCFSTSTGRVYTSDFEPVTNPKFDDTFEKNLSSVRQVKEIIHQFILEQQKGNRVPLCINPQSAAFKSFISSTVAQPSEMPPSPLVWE
Kind of test: Selectivity interaction (KinomeScan (DiscoverX)) EUB0001049a NLK. The following applies: at 1 µM.

Test [12] concerns the target Phosphatidylinositol 4,5-bisphosphate 3-kinase catalytic subunit gamma isoform (Homo sapiens) (UniProt P48736). Kind of test: Selectivity interaction (Panel of kinases, GPCRs, ion channels and transporters (enzymatic assay)) EUB0000223bCl PIK3CG.
In test [13] the target is T4, Histone-lysine N-methyltransferase SUV39H1 (Homo sapiens) (UniProt O43463).
T4 sequence (whole entry): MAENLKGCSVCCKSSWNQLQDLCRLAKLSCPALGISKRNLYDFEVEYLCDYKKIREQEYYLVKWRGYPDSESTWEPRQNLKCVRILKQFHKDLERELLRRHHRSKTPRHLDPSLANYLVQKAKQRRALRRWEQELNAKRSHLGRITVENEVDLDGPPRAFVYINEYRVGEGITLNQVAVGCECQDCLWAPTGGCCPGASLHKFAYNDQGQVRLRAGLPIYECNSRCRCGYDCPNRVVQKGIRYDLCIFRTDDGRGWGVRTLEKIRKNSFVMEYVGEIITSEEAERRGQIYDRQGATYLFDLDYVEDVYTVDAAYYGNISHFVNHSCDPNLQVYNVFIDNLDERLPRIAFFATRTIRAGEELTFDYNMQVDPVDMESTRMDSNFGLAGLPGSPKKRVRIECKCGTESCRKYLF
Kind of test: Selectivity interaction (Methyltransferase screen (radiometric assays, panel of 8 PRMTs, 21 protein lysine methyltransferases, 3 DNA methyltransferases, and one RNA methyltransferase)) EUB0000272b SUV39H1.

Chain of Tyrosine-protein kinase CSK (Homo sapiens) (P41240 2-450 limits assumed): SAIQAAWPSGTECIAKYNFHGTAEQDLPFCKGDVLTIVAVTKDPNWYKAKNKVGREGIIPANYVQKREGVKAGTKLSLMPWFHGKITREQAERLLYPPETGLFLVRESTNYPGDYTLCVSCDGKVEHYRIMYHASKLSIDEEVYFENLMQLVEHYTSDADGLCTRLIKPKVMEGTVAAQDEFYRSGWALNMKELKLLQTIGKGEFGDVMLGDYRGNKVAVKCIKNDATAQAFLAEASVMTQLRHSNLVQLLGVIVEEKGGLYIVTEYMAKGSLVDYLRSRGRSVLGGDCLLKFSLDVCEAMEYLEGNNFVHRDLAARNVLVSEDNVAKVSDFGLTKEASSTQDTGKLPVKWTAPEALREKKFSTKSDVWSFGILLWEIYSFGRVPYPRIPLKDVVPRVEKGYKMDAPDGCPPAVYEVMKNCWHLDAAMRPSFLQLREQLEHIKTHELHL
Chain of Cyclin-dependent kinase 16 (Homo sapiens) (Q00536 whole entry): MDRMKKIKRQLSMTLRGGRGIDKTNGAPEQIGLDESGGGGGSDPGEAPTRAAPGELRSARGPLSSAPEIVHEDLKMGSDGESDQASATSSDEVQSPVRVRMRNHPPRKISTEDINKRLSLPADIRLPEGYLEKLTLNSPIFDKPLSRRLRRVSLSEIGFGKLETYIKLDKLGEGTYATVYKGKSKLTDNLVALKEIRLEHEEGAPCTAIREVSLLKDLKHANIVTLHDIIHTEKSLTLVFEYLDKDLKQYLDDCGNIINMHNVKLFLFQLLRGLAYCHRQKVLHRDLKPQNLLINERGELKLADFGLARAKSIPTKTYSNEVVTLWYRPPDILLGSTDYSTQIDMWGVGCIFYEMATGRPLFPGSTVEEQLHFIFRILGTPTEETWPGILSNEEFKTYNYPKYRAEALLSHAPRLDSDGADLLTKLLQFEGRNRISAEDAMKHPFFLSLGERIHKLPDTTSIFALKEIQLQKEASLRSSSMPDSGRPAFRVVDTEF
Chain of Interleukin-1 receptor-associated kinase 1 (Homo sapiens) (P51617 whole entry, looked up): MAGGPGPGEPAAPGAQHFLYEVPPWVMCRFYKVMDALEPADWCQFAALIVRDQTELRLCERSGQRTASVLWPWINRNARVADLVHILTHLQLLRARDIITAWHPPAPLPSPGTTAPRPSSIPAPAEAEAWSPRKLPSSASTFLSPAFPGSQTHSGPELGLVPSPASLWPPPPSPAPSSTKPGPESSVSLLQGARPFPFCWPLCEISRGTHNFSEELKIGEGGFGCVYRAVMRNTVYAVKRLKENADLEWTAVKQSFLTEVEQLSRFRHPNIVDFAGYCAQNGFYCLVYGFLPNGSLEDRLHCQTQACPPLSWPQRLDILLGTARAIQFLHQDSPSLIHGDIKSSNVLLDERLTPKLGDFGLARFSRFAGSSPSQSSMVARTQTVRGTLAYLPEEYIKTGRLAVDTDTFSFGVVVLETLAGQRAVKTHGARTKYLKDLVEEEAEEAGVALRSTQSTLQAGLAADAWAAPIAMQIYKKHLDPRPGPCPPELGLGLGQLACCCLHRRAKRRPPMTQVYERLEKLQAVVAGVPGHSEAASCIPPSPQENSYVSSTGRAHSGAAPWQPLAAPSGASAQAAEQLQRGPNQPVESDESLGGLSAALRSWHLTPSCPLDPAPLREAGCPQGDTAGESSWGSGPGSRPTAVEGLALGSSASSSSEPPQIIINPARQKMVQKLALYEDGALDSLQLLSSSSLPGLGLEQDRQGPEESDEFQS
Chain of Insulin receptor-related protein (Homo sapiens) (P14616 27-742 limits assumed): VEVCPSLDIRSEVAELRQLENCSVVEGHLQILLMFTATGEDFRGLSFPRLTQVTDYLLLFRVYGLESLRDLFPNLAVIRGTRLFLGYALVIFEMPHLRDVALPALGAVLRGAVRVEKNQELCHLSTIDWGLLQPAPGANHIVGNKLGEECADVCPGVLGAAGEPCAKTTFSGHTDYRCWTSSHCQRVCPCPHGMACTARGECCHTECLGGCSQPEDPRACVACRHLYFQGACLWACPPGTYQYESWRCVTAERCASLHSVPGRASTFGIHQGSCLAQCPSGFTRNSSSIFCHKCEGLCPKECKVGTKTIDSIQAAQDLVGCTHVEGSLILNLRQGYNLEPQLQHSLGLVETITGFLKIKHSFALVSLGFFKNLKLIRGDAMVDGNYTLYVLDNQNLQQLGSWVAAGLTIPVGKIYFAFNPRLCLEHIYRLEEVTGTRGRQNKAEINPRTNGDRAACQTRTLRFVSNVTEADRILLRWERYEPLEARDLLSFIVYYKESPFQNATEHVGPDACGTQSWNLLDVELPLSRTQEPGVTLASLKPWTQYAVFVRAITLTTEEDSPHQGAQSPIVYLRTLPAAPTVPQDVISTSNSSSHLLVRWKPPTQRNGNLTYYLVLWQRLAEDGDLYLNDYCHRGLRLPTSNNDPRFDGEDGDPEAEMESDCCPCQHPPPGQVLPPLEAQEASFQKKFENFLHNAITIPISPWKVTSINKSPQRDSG
Chain of Insulin receptor-related protein (Homo sapiens) (P14616 747-1297 limits assumed): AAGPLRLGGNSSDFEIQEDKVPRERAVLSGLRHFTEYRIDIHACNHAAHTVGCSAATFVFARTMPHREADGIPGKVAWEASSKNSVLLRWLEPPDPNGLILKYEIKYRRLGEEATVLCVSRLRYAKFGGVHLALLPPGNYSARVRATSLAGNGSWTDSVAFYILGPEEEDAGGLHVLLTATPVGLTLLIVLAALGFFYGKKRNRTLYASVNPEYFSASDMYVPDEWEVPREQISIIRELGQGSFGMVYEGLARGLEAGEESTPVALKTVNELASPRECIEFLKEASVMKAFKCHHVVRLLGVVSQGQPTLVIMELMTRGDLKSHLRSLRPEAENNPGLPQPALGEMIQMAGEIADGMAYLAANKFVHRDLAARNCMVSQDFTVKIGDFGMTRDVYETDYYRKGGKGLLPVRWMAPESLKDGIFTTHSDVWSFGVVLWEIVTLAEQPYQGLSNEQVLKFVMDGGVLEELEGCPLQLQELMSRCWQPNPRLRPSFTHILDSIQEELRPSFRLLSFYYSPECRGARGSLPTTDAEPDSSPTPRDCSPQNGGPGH
Chain of Tyrosine-protein kinase JAK1 (P23458 whole entry): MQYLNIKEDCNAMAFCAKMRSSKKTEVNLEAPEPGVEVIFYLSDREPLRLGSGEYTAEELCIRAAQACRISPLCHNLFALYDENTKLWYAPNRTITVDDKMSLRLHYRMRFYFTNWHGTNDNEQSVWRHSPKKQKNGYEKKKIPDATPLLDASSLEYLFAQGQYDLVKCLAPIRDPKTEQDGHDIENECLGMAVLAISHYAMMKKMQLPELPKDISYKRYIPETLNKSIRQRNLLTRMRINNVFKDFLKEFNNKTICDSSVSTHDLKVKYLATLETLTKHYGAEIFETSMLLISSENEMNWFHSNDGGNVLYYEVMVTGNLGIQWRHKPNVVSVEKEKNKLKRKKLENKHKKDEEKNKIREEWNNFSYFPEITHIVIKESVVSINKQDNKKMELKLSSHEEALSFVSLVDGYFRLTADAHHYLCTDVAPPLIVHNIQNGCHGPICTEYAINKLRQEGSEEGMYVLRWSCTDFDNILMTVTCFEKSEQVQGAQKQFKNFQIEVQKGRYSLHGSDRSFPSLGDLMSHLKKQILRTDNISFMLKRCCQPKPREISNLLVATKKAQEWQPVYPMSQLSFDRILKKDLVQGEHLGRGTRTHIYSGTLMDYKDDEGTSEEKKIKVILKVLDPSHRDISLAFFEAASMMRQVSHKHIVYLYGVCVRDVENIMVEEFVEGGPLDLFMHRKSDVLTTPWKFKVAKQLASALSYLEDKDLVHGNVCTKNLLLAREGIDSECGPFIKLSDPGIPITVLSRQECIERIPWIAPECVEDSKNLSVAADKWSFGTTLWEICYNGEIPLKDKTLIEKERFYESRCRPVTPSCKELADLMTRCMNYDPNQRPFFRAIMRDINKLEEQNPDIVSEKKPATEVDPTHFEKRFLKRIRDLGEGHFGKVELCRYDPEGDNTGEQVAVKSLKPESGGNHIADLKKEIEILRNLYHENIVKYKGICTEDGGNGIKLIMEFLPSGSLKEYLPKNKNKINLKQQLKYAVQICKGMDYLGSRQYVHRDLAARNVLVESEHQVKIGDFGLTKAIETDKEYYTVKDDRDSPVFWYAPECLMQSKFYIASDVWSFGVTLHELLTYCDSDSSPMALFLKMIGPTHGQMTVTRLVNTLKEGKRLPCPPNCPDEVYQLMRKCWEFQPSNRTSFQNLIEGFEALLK
Chain of Serine/threonine-protein kinase 25 (Homo sapiens) (O00506 whole entry, looked up): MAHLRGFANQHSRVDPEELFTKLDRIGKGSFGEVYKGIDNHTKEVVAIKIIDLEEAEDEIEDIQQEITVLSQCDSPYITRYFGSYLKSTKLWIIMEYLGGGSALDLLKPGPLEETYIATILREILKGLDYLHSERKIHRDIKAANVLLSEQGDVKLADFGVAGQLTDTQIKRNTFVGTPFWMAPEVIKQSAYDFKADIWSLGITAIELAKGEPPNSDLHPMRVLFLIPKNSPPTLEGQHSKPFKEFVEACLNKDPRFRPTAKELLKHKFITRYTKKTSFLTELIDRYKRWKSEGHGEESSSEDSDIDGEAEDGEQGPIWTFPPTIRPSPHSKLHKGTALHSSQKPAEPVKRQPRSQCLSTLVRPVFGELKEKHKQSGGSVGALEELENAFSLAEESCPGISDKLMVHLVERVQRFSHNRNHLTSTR
Chain of MAP kinase-interacting serine/threonine-protein kinase 2 (Q9HBH9 whole entry, looked up): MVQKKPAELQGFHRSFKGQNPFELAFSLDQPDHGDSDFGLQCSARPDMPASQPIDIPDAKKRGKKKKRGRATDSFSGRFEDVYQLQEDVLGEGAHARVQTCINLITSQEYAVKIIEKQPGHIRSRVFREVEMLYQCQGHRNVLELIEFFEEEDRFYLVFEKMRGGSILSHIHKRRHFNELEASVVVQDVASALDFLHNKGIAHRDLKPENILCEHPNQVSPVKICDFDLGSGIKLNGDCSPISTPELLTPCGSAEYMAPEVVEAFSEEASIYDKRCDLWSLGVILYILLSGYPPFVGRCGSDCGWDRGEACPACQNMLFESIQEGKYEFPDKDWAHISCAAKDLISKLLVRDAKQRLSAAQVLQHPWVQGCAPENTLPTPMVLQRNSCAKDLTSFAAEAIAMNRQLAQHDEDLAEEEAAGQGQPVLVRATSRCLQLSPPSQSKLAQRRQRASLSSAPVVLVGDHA

With `CNC(=O)Nc1ccc(-c2nc(N3CC4CCC(C3)O4)c3cnn(C4CCC5(CC4)OCCO5)c3n2)cc1`, in test [1], the % of inhibition came to 2%. `COc1cc(N(C)c2ccnc3ccc(C(F)(F)F)cc23)cc(OC)c1OC`: in [2], the % binding came to 90%. In test [3], `CN(C)CCOc1ccc(-c2nc(-c3ccncc3)c(-c3ccc4c(c3)CC/C4=N\O)[nH]2)cc1` registered a % of control of 100%. For `N#Cc1cccc(-c2c[nH]c3ncnc(N4CCOCC4)c23)c1`, in test [4], the % of control was 100%.

In the case of `CC[C@@H]1[C@H](F)C(=O)N[C@@H]1COc1nccc2cc(C(N)=O)c(OC)cc12` [ZIMLOVISERTIB], the % of inhibition in test [5] was -2.6%; in [6], 29.6%; in [7], 28.7%. Regarding `CCN(CC)CCCCNc1ncc2cc(-c3cc(OC)cc(OC)c3)c(NC(=O)NC(C)(C)C)nc2n1`, the % of control in [8] came out at 9.4%.

As for `COc1cc(Nc2nc(C)cc(-c3cnn4nc(OC)ccc34)n2)cc(C(F)(F)F)c1`, the values for the % of control in test [9], in test [10] and in test [11] were 91%, 86% and 100%, respectively. Consider `COc1cc(C(=O)N2CC[C@@H](O)[C@@H](N)C2)cc2nc(-c3cc4ccccc4n3CC3CC3)n(C)c12`, for which the pXC50 in [12] is under 4.5 M.

As to `Cc1cc(C)cc([C@H]2c3cc(C)ccc3NC(=O)CN2C(=O)c2ccc(Br)s2)c1`, the % of activity in test [13] (at 1 µM) amounted to 100%; in test [13] (at 10 µM) it was 96.7%.
